Data taken from patent US20240360137A1 (Novartis AG, priority 2023, published 2024).

What was measured:
[1] = test system: RB phosphorylation (Ser 807/811) in OVCAR3 xenograft tumors; test: In vivo pharmacodynamic assessment in Cyclin E amplified OVCAR3 xenograft model (RB phosphorylation by MSD); set-up: species or system NSG mice; conditions: Mus musculus, 3 days, 1 hour after the last dose; for inhibition at 30 mg/kg: OVCAR-3, 30 mg/kg twice daily (BID) oral
From the text: Cyclin-dependent kinase 2 (CDK2) is a member of the protein kinase family. It plays an important role in regulating various events of the eukaryotic cell division cycle. CDK2 is involved in the inactivation of the retinoblastoma protein (RB) by phosphorylation which then allows for the G1 to S phase transition of the cell cycle. Overexpression of cyclin E, the obligate binding partner of CDK2, can cause abnormal regulation of the cell cycle, which is directly associated with hyperproliferation of cancer cells. Therefore, CDK2 is regarded as a potentially impactful therapeutic target for cancer treatment. The purpose of these studies was to evaluate the PK/PD relationship of CDK2 inhibitors in Cyclin E amplified cancer cell lines in vivo in immunodeficient mice. Plasma and tumor tissues were collected for PK analysis and PD assays (read out of RB phosphorylation inhibition) after 3 days of dosing of the CDK2 inhibitor.
(§1) The Cyclin E amplified ovarian cancer cell line OVCAR3 was tested to be free of Mycoplasma and murine viruses using the IDEXX Impact 8 panel. Cells were cultured in RPMI 1640 media supplemented with 20% FBS for fewer than 5 passages after initial thawing and prior to cell implantation into immunodeficient mice. Cells were harvested and resuspended in sterile PBS containing 50% Matrigel. Ten million viable cells were injected at a volume of 0.2 ml per mouse into the flank of immunocompromised NSG mice (1 implant per animal). When tumors reached a mean volume of 200-300 mm^3, mice were randomized and treatments were initiated. Compounds were formulated in 10% HPBCD (hydroxypropyl beta cyclodextrin) and administered orally, twice a day, in a volume of 10 ml/kg. The dosing volume was adjusted based on individual mouse body weight on the day of dosing. Pharmacodynamic markers were evaluated on day 3.
For terminal PD biomarker analysis, mice were euthanized following 3 days of treatment (1 hour post 5th dose). […] RB phosphorylation levels of the resulting tumor protein lysates were then determined by MSD. […] Values were calculated and normalized to the untreated controls. […]

[2] = PK analysis of plasma in OVCAR3 xenograft study; type: in vivo, NSG mice; conditions: 60 mg/kg BID oral, compared to Compound 1 and Compound 2 at 30 mg/kg BID
Procedure: as §1
For determination of compound plasma concentrations, serial blood collections were performed at designated timepoints after dosing. Blood was collected in EDTA-lined tubes and placed on wet ice. Within 30 minutes of collection, blood was centrifuged, and the plasma supernatants were aliquoted and stored at −20 C until analyzed. […] CDK2 inhibitor concentrations were measured by LC-MS/MS analysis on API 4500, API 5500+, or Sciex 7500 instruments. […]

[3] = target: CDK4/cyclinD1 (Homo sapiens, UniProt P11802); test: CDKi biochemical assay (TR-FRET, phosphorylation of S780 on RB1 peptide); conditions: CDK4/cyclinD1 20 pM, 1 mM ATP, 60 min at 25° C.
In short: (§2)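 Avi-tagged, biotinylated CDK4/cyclinD1 (20 pM) or CDK6/cyclinD3 (10 pM) phosphorylates 200 nM His-MBP-RB1[773-924] at S780 with 1 mM ATP in HEPES pH 7.5/MgCl2, 60 min, 25° C. After EDTA quench, Eu anti-pRB(S780)/SA-APC TR-FRET is read after 3 h. Apparent IC50 comes from % activity versus log concentration.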

[4] = target: CDK6/cyclinD3 (Homo sapiens, UniProt Q00534); test: as above; conditions: CDK6/cyclinD3 10 pM, 1 mM ATP, 60 min at 25° C.
In short: as §2

[5] = target: CDK2/CyclinE1 (Homo sapiens, UniProt P24941); test: as above; conditions: CDK2/CyclinE1 100 pM, 1 mM ATP, 60 min at 25° C.
In short: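 CDK2/CyclinE1 (Avi-tag, 100 pM; CDK2 E. coli-expressed) phosphorylated His-MBP-RB1[773-924] (200 nM) at S780 with 1 mM ATP in HEPES pH 7.5/MgCl2/DTT, 60 min at 25° C. After EDTA quench, TR-FRET detection ran 3 h (Eu anti-p-RB S780, SA-APC). Apparent IC50 came from percent activity versus log concentration.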

[6] = target: CDK1/CyclinB1 (Homo sapiens, UniProt P06493); test: as above; conditions: CDK1/CyclinB1 10 pM, 1 mM ATP, 60 min at 25° C.
In short: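 CDK1/CyclinB1 (10 pM, Avi-tagged, insect-cell expressed) phosphorylated S780 of His-MBP-RB1[773-924] (200 nM) with 1 mM ATP in HEPES pH 7.5, 10 mM MgCl2, 1 mM DTT, 60 min at 25 °C. After EDTA quench, TR-FRET detection (Eu anti-pRB S780, SA-APC) for 3 h; apparent IC50 from percent activity versus log concentration.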

exposure [2]	IC50 [3] [µM]	IC50 [4] [µM]	IC50 [5] [µM]	IC50 [6] [µM]	Compound	inhibition at 30 mg/kg [1] [%]	inhibition at 60 mg/kg ([1]; OVCAR-3, 60 mg/kg twice daily (BID) oral) [%]
					COc1n[nH]cc1Nc1ncc2c(n1)N([C@@H]1CCC[C@@H](O)C1)C(=O)C21CC1 [Compound 1]	~80	
lower exposure					CS(=O)(=O)N1CC[C@H](Nc2ncc3c(n2)N([C@@H]2CCC[C@@H](O)C2)C(=O)C32CC2)[C@H](F)C1 [Compound 3, reference compound]		~50
					CCOc1n[nH]cc1Nc1ncc2c(n1)N([C@@H]1CCC[C@@H](O)C1)C(=O)C21CC1 [Compound 2]	~80	
	2.6	3.54	0.017	2.54	O=C1N([C@@H]2CCC[C@@H](O)C2)c2nc(Nc3c[nH]nc3O[C@H]3CCOC3)ncc2C12CC2 [Example 78, 7′-((1R,3R)-3-hydroxycyclohexyl)-2′-((3-(((S)-tetrahydrofuran-3-yl)oxy)-1H-pyrazol-4-yl)amino)spiro[cyclopropane-1,5′-pyrrolo[2,3-d]pyrimidin]-6′(7′H)-one]		
	5.26	8.12	0.034	2.96	COCCOc1n[nH]cc1Nc1ncc2c(n1)N([C@@H]1CCC[C@@H](O)C1)C(=O)C21CC1 [Example 22, 7′-((1R,3R)-3-hydroxycyclohexyl)-2′-((3-(2-methoxyethoxy)-1H-pyrazol-4-yl)amino)spiro[cyclopropane-1,5′-pyrrolo[2,3-d]pyrimidin]-6′(7′H)-one]		
	≥ 10	≥ 10	0.088	≥ 10	Cn1ncc(-c2n[nH]cc2Nc2ncc3c(n2)N([C@@H]2CCC[C@@H](O)C2)C(=O)C32CC2)c1C(F)(F)F [Example 84, 7′-((1R,3R)-3-hydroxycyclohexyl)-2′-((1′-methyl-5′-(trifluoromethyl)-1H,1′H-[3,4′-bipyrazol]-4-yl)amino)spiro[cyclopropane-1,5′-pyrrolo[2,3-d]pyrimidin]-6′(7′H)-one]		
	≥ 10	≥ 10	0.186	≥ 10	CC(=O)N1CC2(CC(COc3n[nH]cc3Nc3ncc4c(n3)N([C@@H]3CCC[C@@H](O)C3)C(=O)C43CC3)C2)C1 [Example 53, 2′-((3-((2-acetyl-2-azaspiro[3.3]heptan-6-yl)methoxy)-1H-pyrazol-4-yl)amino)-7′-((1R,3R)-3-hydroxycyclohexyl)spiro[cyclopropane-1,5′-pyrrolo[2,3-d]pyrimidin]-6′(7′H)-one]		
	9.3	≥ 10	0.029	6.01	Cn1cc(-c2n[nH]cc2Nc2ncc3c(n2)N([C@@H]2CCC[C@@H](O)C2)C(=O)C32CC2)cn1 [Example 80, 7′-((1R,3R)-3-hydroxycyclohexyl)-2′-((1′-methyl-1H,1′H-[3,4′-bipyrazol]-4-yl)amino)spiro[cyclopropane-1,5′-pyrrolo[2,3-d]pyrimidin]-6′(7′H)-one]		
